Experimental data published in US11919901B2 (Syndax Pharmaceuticals, Inc., priority 2021, dated 2024).

test system: MV4-11 cells; test: Cell proliferation assay MV4;11 (CellTiter-Glo, 72 hours); type: cell-based; conditions: Homo sapiens; MV4;11 leukemia cell line, 72 hours; read-out: MV4; 11 IC50
How it was run: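 MV4-11 cells (MLL1-AF4 fusion) exposed 72 h at 37 °C to 8 compound concentrations, final 0.632–2000 nM. Viability by CellTiter-Glo luminescence as % of vehicle RLU; % max inhibition = 100 − viability at top concentration.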

Compound	IC50 [nM]
CC(C)N(C(=O)c1cc(F)ccc1Oc1cncnc1N1CC2(CCN(C[C@@H]3CC[C@@H](NS(=O)(=O)N(C)C(C)C)CO3)CC2)C1)C1CC(F)(F)C1 [Example 119, N-(3,3-Difluorocyclobutyl)-5-fluoro-N-isopropyl-2-((4-(7-(((2S,5R)-5-((N-isopropyl-N-methylsulfamoyl)amino)tetrahydro-2H-pyran-2-yl)methyl)-2,7-diazaspiro[3.5]nonan-2-yl)pyrimidin-5-yl)oxy)benzamide]	< 100
CCN(C(=O)c1cc(F)ccc1Oc1cncnc1N1CC2(CCN(C[C@@H]3CC[C@@H](NC(=O)Nc4ccccc4)CO3)CC2)C1)C(C)C [Example 215, N-Ethyl-5-fluoro-N-isopropyl-2-((4-(7-(((2S,5R)-5-(3-phenylureido)tetrahydro-2H-pyran-2-yl)methyl)-2,7-diazaspiro[3.5]nonan-2-yl)pyrimidin-5-yl)oxy)benzamide]	100 to 1000
CC(C)N(C(=O)c1cc(F)ccc1Oc1cncnc1N1CC2(CCN(C[C@@H]3CC[C@@H](NS(=O)(=O)C4COC4)CO3)CC2)C1)C1CC1 [Example 22, N-Cyclopropyl-5-fluoro-N-isopropyl-2-((4-(7-(((2S,5R)-5-(oxetane-3-sulfonamido)tetrahydro-2H-pyran-2-yl)methyl)-2,7-diazaspiro[3.5]nonan-2-yl)pyrimidin-5-yl)oxy)benzamide]	100 to 1000
C[C@@H]1COC[C@@H](C)N1C(=O)c1cc(F)ccc1Oc1cncnc1N1CC2(CCN(C[C@@H]3CC[C@@H](NS(=O)(=O)c4cnn(C)c4)CO3)CC2)C1 [Example 126, N-((3R,6S)-6-((2-(5-(2-((3R,5R)-3,5-Dimethylmorpholine-4-carbonyl)-4-fluorophenoxy)pyrimidin-4-yl)-2,7-diazaspiro[3.5]nonan-7-yl)methyl)tetrahydro-2H-pyran-3-yl)-1-methyl-1H-pyrazole-4-sulfonamide]	< 100
CCN(C(=O)c1cc(F)ccc1Oc1cncnc1N1CC2(CCN(C[C@@H]3CC[C@@H](NS(=O)(=O)c4ccccc4OC)CO3)CC2)C1)C(C)C [Example 65, N-Ethyl-5-fluoro-N-isopropyl-2-((4-(7-(((2S,5R)-5-((2-methoxyphenyl)sulfonamido)tetrahydro-2H-pyran-2-yl)methyl)-2,7-diazaspiro[3.5]nonan-2-yl)pyrimidin-5-yl)oxy)benzamide]	< 100
CC(C)N(C(=O)c1cc(F)ccc1Oc1cncnc1N1CC2(CCN(C[C@@H]3CC[C@@H](NS(=O)(=O)C(C)C)CO3)CC2)C1)C(C)C [Example 14, 5-Fluoro-N,N-diisopropyl-2-((4-(7-(((2S,5R)-5-((1-methylethyl)sulfonamido)tetrahydro-2H-pyran-2-yl)methyl)-2,7-diazaspiro[3.5]nonan-2-yl)pyrimidin-5-yl)oxy)benzamide]	< 100
CC(C)N(CC(F)F)C(=O)c1cc(F)ccc1Oc1cncnc1N1CC2(CCN(C[C@@H]3CC[C@@H](NS(=O)(=O)N4CCOCC4)CO3)CC2)C1 [Example 94, N-(2,2-Difluoroethyl)-5-fluoro-N-isopropyl-2-((4-(7-(((2S,5R)-5-(morpholine-4-sulfonamido)tetrahydro-2H-pyran-2-yl)methyl)-2,7-diazaspiro[3.5]nonan-2-yl)pyrimidin-5-yl)oxy)benzamide]	< 100
CC(C)N(C(=O)c1cc(F)ccc1Oc1cncnc1N1CC2(CCN(C[C@@H]3CC[C@@H](NS(=O)(=O)N4CCCC4)CO3)CC2)C1)[C@H]1CCOC1 [Example 178, 5-Fluoro-N-isopropyl-2-((4-(7-(((2S,5R)-5-(pyrrolidine-1-sulfonamido)tetrahydro-2H-pyran-2-yl)methyl)-2,7-diazaspiro[3.5]nonan-2-yl)pyrimidin-5-yl)oxy)-N-((S)-tetrahydrofuran-3-yl)benzamide]	< 100
CCS(=O)(=O)N[C@@H]1CC[C@@H](CN2CCC3(CC2)CN(c2ncncc2Oc2ccc(F)cc2C(=O)N(CCC(F)F)C(C)C)C3)OC1 [Example 242, N-(3,3-Difluoropropyl)-2-((4-(7-(((2S,5R)-5-(ethylsulfonamido)tetrahydro-2H-pyran-2-yl)methyl)-2,7-diazaspiro[3.5]nonan-2-yl)pyrimidin-5-yl)oxy)-5-fluoro-N-isopropylbenzamide]	< 100
CCNS(=O)(=O)N[C@@H]1CC[C@@H](CN2CCC3(CC2)CN(c2ncncc2Oc2ccc(F)cc2C(=O)N(C(C)C)[C@H]2CCOC2)C3)OC1 [Example 180, 2-((4-(7-(((2S,5R)-5-((N-Ethylsulfamoyl)amino)tetrahydro-2H-pyran-2-yl)methyl)-2,7-diazaspiro[3.5]nonan-2-yl)pyrimidin-5-yl)oxy)-5-fluoro-N-isopropyl-N-((S)-tetrahydrofuran-3-yl)benzamide]	< 100
C[C@@H]1COC[C@@H](C)N1C(=O)c1cc(F)ccc1Oc1cncnc1N1CC2(CCN(C[C@@H]3CC[C@@H](NS(C)(=O)=O)CO3)CC2)C1 [Example 28, N-((3R,6S)-6-((2-(5-(2-((3R,5R)-3,5-Dimethylmorpholine-4-carbonyl)-4-fluorophenoxy)pyrimidin-4-yl)-2,7-diazaspiro[3.5]nonan-7-yl)methyl)tetrahydro-2H-pyran-3-yl)methanesulfonamide]	100 to 1000
C[C@@H]1COC[C@H](C)N1C(=O)c1cc(F)ccc1Oc1cncnc1N1CC2(CCN(C[C@@H]3CC[C@@H](NS(=O)(=O)C4COC4)CO3)CC2)C1 [Example 27, N-((3R,6S)-6-((2-(5-(2-((3S,5R)-3,5-Dimethylmorpholine-4-carbonyl)-4-fluorophenoxy)pyrimidin-4-yl)-2,7-diazaspiro[3.5]nonan-7-yl)methyl)tetrahydro-2H-pyran-3-yl)oxetane-3-sulfonamide]	100 to 1000
CC(C)N(C)C(=O)c1cc(F)ccc1Oc1cncnc1N1CC2(CCN(C[C@@H]3CC[C@@H](NS(=O)(=O)N(C)C)CO3)CC2)C1 [Example 137, 2-((4-(7-(((2S,5R)-5-((N,N-Dimethylsulfamoyl)amino)tetrahydro-2H-pyran-2-yl)methyl)-2,7-diazaspiro[3.5]nonan-2-yl)pyrimidin-5-yl)oxy)-5-fluoro-N-isopropyl-N-methylbenzamide]	< 100
CCN(C(=O)c1cc(F)ccc1Oc1cncnc1N1CC2(CCN(C[C@@H]3CC[C@@H](NS(=O)(=O)c4ccc(Cl)cc4)CO3)CC2)C1)C(C)C [Example 61, 2-((4-(7-(((2S,5R)-5-((4-Chlorophenyl)sulfonamido)tetrahydro-2H-pyran-2-yl)methyl)-2,7-diazaspiro[3.5]nonan-2-yl)pyrimidin-5-yl)oxy)-N-ethyl-5-fluoro-N-isopropylbenzamide]	< 100
CC(C)N(CCC#N)C(=O)c1cc(F)ccc1Oc1cncnc1N1CC2(CCN(C[C@@H]3CC[C@@H](NS(=O)(=O)c4ccccc4)CO3)CC2)C1 [Example 136, N-(2-Cyanoethyl)-5-fluoro-N-isopropyl-2-((4-(7-(((2S,5R)-5-(phenylsulfonamido)tetrahydro-2H-pyran-2-yl)methyl)-2,7-diazaspiro[3.5]nonan-2-yl)pyrimidin-5-yl)oxy)benzamide]	< 100
C=CS(=O)(=O)N[C@@H]1CC[C@@H](CN2CCC3(CC2)CN(c2ncncc2Oc2ccc(F)cc2C(=O)N(CC)C(C)C)C3)OC1 [Example 219, N-Ethyl-5-fluoro-N-isopropyl-2-((4-(7-(((2S,5R)-5-(vinylsulfonamido)tetrahydro-2H-pyran-2-yl)methyl)-2,7-diazaspiro[3.5]nonan-2-yl)pyrimidin-5-yl)oxy)benzamide]	< 100
C[C@H]1COCCN1C(=O)c1cc(F)ccc1Oc1cncnc1N1CC2(CCN(C[C@@H]3CC[C@@H](NS(=O)(=O)C4CC4)CO3)CC2)C1 [Example 40, N-((3R,6S)-6-((2-(5-(4-Fluoro-2-((S)-3-methylmorpholine-4-carbonyl)phenoxy)pyrimidin-4-yl)-2,7-diazaspiro[3.5]nonan-7-yl)methyl)tetrahydro-2H-pyran-3-yl)cyclopropanesulfonamide]	100 to 1000
CCS(=O)(=O)N[C@@H]1CC[C@@H](CN2CCC3(CC2)CN(c2ncnnc2Oc2ccc(F)cc2C(=O)N(CC(F)(F)F)C(C)C)C3)OC1 [Example 190, 2-((5-(7-(((2S,5R)-5-(Ethylsulfonamido)tetrahydro-2H-pyran-2-yl)methyl)-2,7-diazaspiro[3.5]nonan-2-yl)-1,2,4-triazin-6-yl)oxy)-5-fluoro-N-isopropyl-N-(2,2,2-trifluoroethyl)benzamide]	< 100
C[C@@H]1COC[C@@H](C)N1C(=O)c1cc(F)ccc1Oc1cncnc1N1CC2(CCN(C[C@@H]3CC[C@@H](NS(=O)(=O)NCC(F)(F)F)CO3)CC2)C1 [Example 157, {[(3R,6S)-6-{[2-(5-{2-[(3R,5R)-3,5-Dimethylmorpholine-4-carbonyl]-4-fluorophenoxy}pyrimidin-4-yl)-2,7-diazaspiro[3.5]nonan-7-yl]methyl}oxan-3-yl]sulfamoyl}(2,2,2-trifluoroethyl)amine]	< 100
CCS(=O)(=O)N[C@@H]1CC[C@@H](CN2CCC3(CC2)CN(c2ncncc2Oc2ccc(F)cc2C(=O)N2[C@H](C)CCC[C@@H]2C)C3)OC1 [Example 36, N-((3R,6S)-6-((2-(5-(2-((2S,6R)-2,6-Dimethylpiperidine-1-carbonyl)-4-fluorophenoxy)pyrimidin-4-yl)-2,7-diazaspiro[3.5]nonan-7-yl)methyl)tetrahydro-2H-pyran-3-yl)ethanesulfonamide]	< 100
CC(C)N(C(=O)c1cc(F)ccc1Oc1cncnc1N1CC2(CCN(C[C@@H]3CC[C@@H](NS(=O)(=O)N4CCC4)CO3)CC2)C1)[C@@H]1CCOC1 [Example 168, 2-((4-(7-(((2S,5R)-5-(Azetidine-1-sulfonamido)tetrahydro-2H-pyran-2-yl)methyl)-2,7-diazaspiro[3.5]nonan-2-yl)pyrimidin-5-yl)oxy)-5-fluoro-N-isopropyl-N-((R)-tetrahydrofuran-3-yl)benzamide]	< 100
CC(C)N(CC(F)F)C(=O)c1cc(F)ccc1Oc1cncnc1N1CC2(CCN(C[C@@H]3CC[C@@H](NS(=O)(=O)N(C)C(C)C)CO3)CC2)C1 [Example 101, N-(2,2-Difluoroethyl)-5-fluoro-N-isopropyl-2-((4-(7-(((2S,5R)-5-((N-isopropyl-N-methylsulfamoyl)amino)tetrahydro-2H-pyran-2-yl)methyl)-2,7-diazaspiro[3.5]nonan-2-yl)pyrimidin-5-yl)oxy)benzamide]	< 100
